Marks after values point to notes of the source that are not given here.
Tests used:
[1] = target: ErbB2 (Homo sapiens, UniProt P04626); assay: Mechanism of action study / Ki determination; format: biochemical; parameters: residues Q679-V1255 of human ErbB2, Proqinase; purchased Proqinase
Protocol: Enzymatic activity was measured by standard methods after dilution of the enzyme-inhibitor complex.

[2] = target: T1, Histamine, H3 (Homo sapiens, UniProt Q9Y5N1); assay: NovaScreen assay; format: binding; conditions: read-out: Inhibition, 10 μM XL-647
T1 construct: NovaScreen

[3] = target: T2, Cholecystokinin, CCK2 (CCKB) (Homo sapiens, UniProt P32239); assay: NovaScreen assay; format: binding; conditions: read-out: Inhibition, 10 μM XL-647
T2 construct: NovaScreen

[4] = target: EGFR L858R (pCMV/Lx-1) (Homo sapiens, UniProt P00533, L858R); assay: EGFR phosphorylation ELISA in transfected Lx-1 cells
Text: Lx-1 cells were used because they lack background EGFR activity. A clone corresponding to the longest EGFR isoform (Genbank accession no. NM_005228.3/NP_005219.2 #21-176, Upstate Biotechnology) was used as a template to produce two mutant EGFR genes (coding for L858R and L861Q) by site-directed mutagenesis. The WT and the two sequence-verified mutants were transferred to a COOH-terminal Flag-tagged retroviral cytomegalovirus promoter-driven mammalian expression vector. The two Tet-On expression vectors, EGFR WT (Tet-On) and EGFRvIII (Tet-On), which were COOH-terminally Flag tagged, were generously provided by Dr. Abhijit Guha (University of Toronto, Toronto, Ontario, Canada).
Transient transfections of Lx-1 cells were done using Lipofectamine 2000 (Invitrogen) according to the manufacturer's protocol. For transfections of the WT, L858R, and L861Q constructs, 1 μg plasmid DNA was used for each transfection (each well of a 12-well plate). […]
For the EGFR phosphorylation ELISA, Reacti-Bind streptavidin-coated plates (Pierce) were coated with 2 μg/mL biotin-conjugated anti-Flag antibody (Sigma). […] Horseradish peroxidase activity was determined by reading the plates in a Victor2 plate reader following addition of the ELISA Femto substrate.

[5] = target: T3, p-Y-VEGFR2/KDR (Mus musculus, UniProt P35918); assay: In vivo receptor phosphorylation, murine lung; conditions: read-out: Estimated IC50 (plasma concentration)
T3 construct: from tissue; host or cells: murine lung

[6] = tested on: Phospho AKT Ser473; assay: Immunohistochemical analysis of phosphorylation in H1975 xenografts; format: in vivo, mouse; conditions: 14-day dosing
Protocol: For immunohistochemical analysis of H1975, MDA-MB-231 and other xenografts, tumors were excised after euthanasia and fixed in zinc fixative (BD Biosciences) for 48 h before being processed into paraffin blocks. Serial sections at 5 μm were obtained from the area of largest possible surface for each tumor and stained using standard methods. The following antibodies were used: Ki67 (SP6; Labvision), CD31 (MECA.32; BD Biosciences), pERK^Thr202/Tyr204 (phospho-p44/42 mitogen-activated protein kinase; Cell Signaling Technology), pAKT^Ser473 (Cell Signaling Technology), and pEGFR^Tyr1068 (Cell Signaling Technology). For immunofluorescent staining, sections were then incubated with Alexa 594-conjugated goat anti-rabbit secondary antibody (Invitrogen) and mounted in Fluorescent Mounting Medium (DAKO) containing 4′,6-diamidino-2-phenylindole (Molecular Probes) as a nuclear counterstain. Fluorescent staining was visualized using a Zeiss Axiolmager and digitally captured using a Zeiss high-resolution camera coupled to AxioVision image analysis software. Two to three nonoverlapping representative fields were captured at ×200 or ×400 magnification depending on histologic readout and quantified using the integrated morphometric analysis functions in Metamorph software (Universal Imaging Corp.). Apoptotic cells were detected using terminal deoxynucleotidyl transferase-mediated dUTP nick end labeling in situ cell death detection kit according to the manufacturer's instructions (Roche Diagnostics GmbH).
Results are presented as mean±SD or SE as indicated for each graph or table. For IC50 comparison in the A431 cell viability experiment, two sample Student's t tests were applied to determine P values for each IC50 pair assuming that the random fluctuations of replicates around the dose-response curve are distributed [log]normally with the individual replicates used as the ‘sample size’ for the t test (nine point dose response done in triplicate). For statistical analysis of immunohistochemical results from in vivo studies, two-tailed Student's t test analysis and Bonferroni correction were done to identify significant differences compared with vehicle control group (multiple use of a single vehicle control group) with a cumulative minimal requirement of P<0.05.

[7] = target: T4, EphB4 (Homo sapiens, UniProt P54760); assay: Radiometric 33P-phosphoryl transfer kinase assay; format: biochemical; conditions: ATP at Km
T4 construct: residues E605-E890 of human EphB4 containing a six histidine NH2-terminal tag; His6 (N); made in house; host or cells: baculovirus expression system
T4 sequence (P54760 605-890): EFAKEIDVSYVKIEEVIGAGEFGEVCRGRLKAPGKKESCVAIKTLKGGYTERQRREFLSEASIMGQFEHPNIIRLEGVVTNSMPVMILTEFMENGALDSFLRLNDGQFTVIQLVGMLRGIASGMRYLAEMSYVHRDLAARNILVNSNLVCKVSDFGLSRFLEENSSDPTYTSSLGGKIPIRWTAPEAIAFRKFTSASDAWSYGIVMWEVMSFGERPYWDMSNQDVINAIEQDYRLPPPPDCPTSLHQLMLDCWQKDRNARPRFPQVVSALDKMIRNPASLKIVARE
Protocol: (§1) Dose-response experiments were done using 10 different inhibitor concentrations in 384-well microtiter plates. The ATP concentration used for each assay was equivalent to the Km for each kinase. IC50 values were calculated by nonlinear regression analysis using the four-variable equation: Y=min+(max−min)/[1+([I]/IC50)N], where Y is the observed signal, [I] is the inhibitor concentration, min is the background signal in the absence of enzyme (0% enzyme activity), max is the signal in the absence of inhibitor (100% enzyme activity), IC50 is the inhibitor concentration required at 50% enzyme inhibition, and N represents the empirical Hill slope as a measure of cooperativity.
(§2) A radiometric ^33P-Phosphoryl transfer kinase assay was used to measure EphB4, insulin-like growth factor-I receptor (IGFR-1), and insulin receptor (IRK) activity. Reactions were performed in 384-well white, clear bottom, high-binding microtiter plates (Greiner). Plates were coated with 2 μg/well peptide substrate in a 50 μL volume. […] The coated plates were washed once with 50 μL assay buffer following overnight incubation at room temperature. Test compound and either 5 nmol/L EphB4 (residues E605-E890 of human EphB4 containing a six histidine NH2-terminal tag, expressed in a baculovirus expression system and purified using metal chelate chromatography), 4 nmol/L insulin-like growth factor-I receptor (residues M954-C1367 of human insulin-like growth factor-I receptor, Proqinase GmbH), or 15 nmol/L insulin receptor 1 (residues P948-S1343 of human insulin receptor 1, Proqinase) were combined with [^33P]g-ATP (5 μmol/L, 3.3 μCi/nmol) in a total volume of 20 μL. The reaction mixture was incubated at room temperature for 1.5 to 2.5 h and terminated by aspiration. The microtiter plates were subsequently washed six times with 0.05% Tween-PBS buffer. Scintillation fluid (50 μL/well) was added and incorporated ^33P was measured by liquid scintillation spectrometry using a MicroBeta scintillation counter (Perkin-Elmer).

[8] = target: T5, IGF1R (Homo sapiens, UniProt P08069); assay: Radiometric 33P-phosphoryl transfer kinase assay; format: biochemical; conditions: ATP at Km
T5 construct: residues M954-C1367 of human insulin-like growth factor-I receptor, Proqinase GmbH; purchased Proqinase GmbH
Protocol: as §1, §2

[9] = target: T6, InsR (Homo sapiens, UniProt P06213); assay: Radiometric 33P-phosphoryl transfer kinase assay; format: biochemical; conditions: ATP at Km
T6 construct: residues P948-S1343 of human insulin receptor 1, Proqinase; purchased Proqinase
Protocol: as §1, §2

Chain of ErbB2 (P04626 679-1255): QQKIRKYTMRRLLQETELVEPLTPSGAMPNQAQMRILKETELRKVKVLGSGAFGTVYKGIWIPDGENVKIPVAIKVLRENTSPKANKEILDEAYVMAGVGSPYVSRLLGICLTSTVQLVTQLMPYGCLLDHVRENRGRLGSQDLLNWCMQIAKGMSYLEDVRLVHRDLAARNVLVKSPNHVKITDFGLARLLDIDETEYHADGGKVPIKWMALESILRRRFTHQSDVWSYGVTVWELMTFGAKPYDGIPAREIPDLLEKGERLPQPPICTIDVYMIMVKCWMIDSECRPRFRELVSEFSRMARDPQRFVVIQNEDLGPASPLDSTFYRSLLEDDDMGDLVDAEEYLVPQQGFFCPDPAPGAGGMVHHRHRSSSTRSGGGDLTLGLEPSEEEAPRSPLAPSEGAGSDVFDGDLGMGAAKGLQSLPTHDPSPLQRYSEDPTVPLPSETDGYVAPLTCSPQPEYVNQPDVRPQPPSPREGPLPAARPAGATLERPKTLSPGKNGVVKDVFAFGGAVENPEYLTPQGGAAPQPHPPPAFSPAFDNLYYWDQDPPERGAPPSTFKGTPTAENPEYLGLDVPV
T2 sequence (P32239 whole entry): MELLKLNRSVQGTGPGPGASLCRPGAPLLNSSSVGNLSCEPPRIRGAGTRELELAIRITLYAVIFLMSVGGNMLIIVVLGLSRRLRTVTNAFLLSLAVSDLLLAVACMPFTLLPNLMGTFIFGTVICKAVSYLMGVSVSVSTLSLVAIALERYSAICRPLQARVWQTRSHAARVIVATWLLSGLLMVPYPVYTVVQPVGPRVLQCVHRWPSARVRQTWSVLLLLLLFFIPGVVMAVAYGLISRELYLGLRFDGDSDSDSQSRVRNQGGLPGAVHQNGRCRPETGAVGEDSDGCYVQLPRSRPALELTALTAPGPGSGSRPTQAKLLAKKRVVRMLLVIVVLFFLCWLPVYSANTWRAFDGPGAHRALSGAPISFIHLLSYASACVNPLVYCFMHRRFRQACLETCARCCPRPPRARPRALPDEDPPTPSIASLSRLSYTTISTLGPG
T3 sequence (P35918 20-1345): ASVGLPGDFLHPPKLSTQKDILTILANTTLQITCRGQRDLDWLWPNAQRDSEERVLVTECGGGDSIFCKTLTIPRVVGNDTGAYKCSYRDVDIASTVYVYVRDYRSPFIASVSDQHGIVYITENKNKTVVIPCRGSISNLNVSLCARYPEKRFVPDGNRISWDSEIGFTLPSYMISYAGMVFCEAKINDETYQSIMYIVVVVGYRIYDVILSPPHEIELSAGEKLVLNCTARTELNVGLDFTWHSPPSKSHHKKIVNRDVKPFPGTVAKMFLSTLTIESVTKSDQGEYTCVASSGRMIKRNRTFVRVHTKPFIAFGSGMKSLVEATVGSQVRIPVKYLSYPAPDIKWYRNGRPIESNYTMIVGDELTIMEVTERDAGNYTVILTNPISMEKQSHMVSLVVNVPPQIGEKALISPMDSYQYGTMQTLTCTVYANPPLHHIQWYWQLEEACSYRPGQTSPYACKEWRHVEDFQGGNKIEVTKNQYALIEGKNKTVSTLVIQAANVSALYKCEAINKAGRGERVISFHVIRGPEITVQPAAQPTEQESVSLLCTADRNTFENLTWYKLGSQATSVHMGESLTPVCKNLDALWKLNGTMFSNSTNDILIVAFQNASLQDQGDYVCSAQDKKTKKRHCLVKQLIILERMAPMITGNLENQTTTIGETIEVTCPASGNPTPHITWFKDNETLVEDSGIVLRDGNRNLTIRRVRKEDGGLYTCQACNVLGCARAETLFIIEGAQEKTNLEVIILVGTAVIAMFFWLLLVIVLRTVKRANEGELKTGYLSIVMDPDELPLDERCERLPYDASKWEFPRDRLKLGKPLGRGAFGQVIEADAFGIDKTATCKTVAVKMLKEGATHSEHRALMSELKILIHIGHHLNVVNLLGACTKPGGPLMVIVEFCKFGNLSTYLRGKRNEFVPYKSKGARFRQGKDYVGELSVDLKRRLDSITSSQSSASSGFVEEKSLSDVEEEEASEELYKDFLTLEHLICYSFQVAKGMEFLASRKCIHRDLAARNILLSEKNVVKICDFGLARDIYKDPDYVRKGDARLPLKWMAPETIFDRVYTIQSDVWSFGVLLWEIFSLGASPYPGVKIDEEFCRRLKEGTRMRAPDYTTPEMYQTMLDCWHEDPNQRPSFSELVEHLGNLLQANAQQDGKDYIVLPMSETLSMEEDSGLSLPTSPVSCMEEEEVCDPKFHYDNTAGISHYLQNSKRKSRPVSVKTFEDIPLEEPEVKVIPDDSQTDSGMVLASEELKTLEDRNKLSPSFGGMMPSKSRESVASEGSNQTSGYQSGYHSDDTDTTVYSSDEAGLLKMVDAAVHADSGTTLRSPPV
T6 sequence (P06213 987-1382): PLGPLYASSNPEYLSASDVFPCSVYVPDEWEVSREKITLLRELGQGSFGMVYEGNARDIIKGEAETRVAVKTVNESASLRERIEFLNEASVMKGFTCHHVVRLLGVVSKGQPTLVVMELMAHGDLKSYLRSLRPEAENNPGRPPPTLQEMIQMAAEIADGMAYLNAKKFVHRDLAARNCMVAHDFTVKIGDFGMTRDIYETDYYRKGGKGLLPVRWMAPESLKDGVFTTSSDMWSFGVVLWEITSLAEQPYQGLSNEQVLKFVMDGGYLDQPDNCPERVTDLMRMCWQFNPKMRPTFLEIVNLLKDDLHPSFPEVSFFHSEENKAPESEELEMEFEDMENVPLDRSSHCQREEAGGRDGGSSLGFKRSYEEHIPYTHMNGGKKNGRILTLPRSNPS
T5 sequence (P08069 954-1367): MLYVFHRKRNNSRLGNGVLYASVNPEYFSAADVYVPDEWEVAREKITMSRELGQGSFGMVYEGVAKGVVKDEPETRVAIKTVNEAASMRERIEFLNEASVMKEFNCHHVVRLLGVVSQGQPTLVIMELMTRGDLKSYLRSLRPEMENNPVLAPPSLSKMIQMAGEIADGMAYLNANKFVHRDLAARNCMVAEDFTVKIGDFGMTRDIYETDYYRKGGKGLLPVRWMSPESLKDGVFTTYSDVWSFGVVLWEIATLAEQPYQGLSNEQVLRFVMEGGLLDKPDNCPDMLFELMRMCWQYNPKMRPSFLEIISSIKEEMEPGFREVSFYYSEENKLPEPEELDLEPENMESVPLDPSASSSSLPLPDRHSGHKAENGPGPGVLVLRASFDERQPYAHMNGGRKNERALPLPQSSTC
Chain of EGFR L858R (pCMV/Lx-1) (P00533 25-1210 L858R): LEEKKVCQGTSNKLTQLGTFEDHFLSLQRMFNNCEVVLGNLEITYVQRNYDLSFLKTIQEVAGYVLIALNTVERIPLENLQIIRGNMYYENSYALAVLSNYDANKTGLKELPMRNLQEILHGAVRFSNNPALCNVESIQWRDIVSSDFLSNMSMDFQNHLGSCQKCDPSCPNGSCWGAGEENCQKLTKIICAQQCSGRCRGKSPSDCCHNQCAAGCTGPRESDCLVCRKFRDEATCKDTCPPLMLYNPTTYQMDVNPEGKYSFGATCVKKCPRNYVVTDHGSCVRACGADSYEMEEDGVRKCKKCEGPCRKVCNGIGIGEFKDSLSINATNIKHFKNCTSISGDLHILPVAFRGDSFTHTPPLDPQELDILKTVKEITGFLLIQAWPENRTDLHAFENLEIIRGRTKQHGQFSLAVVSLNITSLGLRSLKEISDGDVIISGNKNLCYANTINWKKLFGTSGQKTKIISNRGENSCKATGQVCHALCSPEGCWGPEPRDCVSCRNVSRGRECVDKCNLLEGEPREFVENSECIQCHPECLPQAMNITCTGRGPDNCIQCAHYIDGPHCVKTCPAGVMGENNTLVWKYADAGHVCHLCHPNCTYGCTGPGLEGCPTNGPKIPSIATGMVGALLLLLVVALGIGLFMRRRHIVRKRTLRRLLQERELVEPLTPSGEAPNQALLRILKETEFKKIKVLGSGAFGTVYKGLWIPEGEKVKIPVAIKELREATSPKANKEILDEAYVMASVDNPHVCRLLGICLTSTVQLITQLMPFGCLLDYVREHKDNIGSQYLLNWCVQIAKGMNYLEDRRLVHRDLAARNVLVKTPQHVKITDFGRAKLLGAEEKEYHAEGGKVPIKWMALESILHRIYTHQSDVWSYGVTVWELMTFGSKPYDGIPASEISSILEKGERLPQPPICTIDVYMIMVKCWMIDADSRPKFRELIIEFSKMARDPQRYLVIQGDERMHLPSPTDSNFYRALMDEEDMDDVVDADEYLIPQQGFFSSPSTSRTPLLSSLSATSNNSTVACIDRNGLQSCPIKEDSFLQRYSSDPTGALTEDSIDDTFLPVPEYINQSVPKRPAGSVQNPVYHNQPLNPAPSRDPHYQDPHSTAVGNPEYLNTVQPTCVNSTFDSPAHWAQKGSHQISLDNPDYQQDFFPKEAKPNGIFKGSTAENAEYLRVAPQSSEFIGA
T1 sequence (Q9Y5N1 whole entry): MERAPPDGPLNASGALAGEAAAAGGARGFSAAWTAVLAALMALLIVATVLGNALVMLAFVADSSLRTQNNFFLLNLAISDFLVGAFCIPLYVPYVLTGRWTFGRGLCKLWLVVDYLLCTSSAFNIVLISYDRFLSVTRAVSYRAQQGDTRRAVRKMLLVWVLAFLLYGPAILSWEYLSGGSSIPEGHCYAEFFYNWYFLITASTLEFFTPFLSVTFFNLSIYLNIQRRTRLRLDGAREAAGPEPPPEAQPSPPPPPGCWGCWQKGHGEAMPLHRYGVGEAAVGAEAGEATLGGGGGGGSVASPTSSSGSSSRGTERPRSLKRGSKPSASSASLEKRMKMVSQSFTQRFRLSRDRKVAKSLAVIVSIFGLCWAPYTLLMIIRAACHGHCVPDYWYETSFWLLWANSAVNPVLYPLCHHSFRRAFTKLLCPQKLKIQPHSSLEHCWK

For `COc1cc2c(Nc3ccc(Cl)c(Cl)c3F)ncnc2cc1OC[C@@H]1C[C@@H]2CN(C)C[C@@H]2C1` [XL-647, N-(3,4-dichloro-2-fluorophenyl)-7-({[(3aR,5r,6aS)-2-methyloctahydrocyclopenta[c]pyrrol-5-yl]methyl}oxy)-6-(methyloxy)quinazolin-4-amine], the ATP-Competitive [1] was “Yes”, the Ki [1] was 3 nM and the Reversible [1] was “Yes”. It also gave an inhibition at 10 µM [2] of 38.6%, an inhibition at 10 µM [3] of 17.1% and an IC50 [4] of 5 nM. The IC50 [5] was 1200 nM, the “Phospho AKT Ser473 % Cells” value ([6]; 10 mg/kg) was 19 ± 2.1% and the “Phospho AKT Ser473 % Reduction” value ([6]; 10 mg/kg) was 53.6^a %. The “Phospho AKT Ser473 % Cells” value ([6]; 30 mg/kg) was 12 ± 1.9%, the “Phospho AKT Ser473 % Reduction” value ([6]; 30 mg/kg) was 72.4^a % and the “Phospho AKT Ser473 % Cells” value ([6]; 100 mg/kg) was 11 ± 1.9%. The “Phospho AKT Ser473 % Reduction” value ([6]; 100 mg/kg) was 74.4^a %, the IC50 [7] was 1.4 ± 0.2 nM and the IC50 [8] was greater than 10000 nM. For the same compound, the IC50 [9] was greater than 26000 nM.

— patent publication US9364479B2, “Use of a receptor-type kinase modulator for treating polycystic kidney disease” (SYMPHONY EVOLUTION, INC., priority 2010, dated 2016)
